Measured values as given in ChEMBL document CHEMBL1201862, “PubChem BioAssay data set” (2004).
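Five compound concentrations were applied to cells in 96-well plates for 48 hours; endpoints were derived by simple linear interpolation of the resulting dose-response curve. Abbreviation: GI50, concentration required for 50% inhibition of growth.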 Activity calls are given as the source filed them. No stated cut-off is given here; in the data, active = GI50 up to about 1.1 µM and inactive = higher.

How the values were obtained:
Test in all cases: growth of human tumour cells (NCI), 48 h
[1] = system: COLO 205
[2] = system: NCI/ADR-RES
[3] = system: SK-OV-3
[4] = system: EKVX
[5] = system: HCT-116
[6] = system: K562
[7] = system: LOX IMVI
[8] = system: Malme-3M
[9] = system: SR
[10] = system: HCT-15
[11] = system: MDA-MB-231
[12] = system: OVCAR-8
[13] = system: SK-MEL-28
[14] = system: M14
[15] = system: UACC-257
[16] = system: ACHN
[17] = system: RXF 393
[18] = system: IGROV-1
[19] = system: CCRF-CEM
[20] = system: PC-3

In the case of `COC1(OC)c2no[n+]([O-])c2CCC1O` (stereo not drawn), the GI50 [1] is reported as > 100 µM (inactive), the GI50 [2] is reported as > 100 µM (inactive) and the GI50 [3] is reported as > 100 µM (inactive). For the same compound, the GI50 [4] was > 100 µM (inactive), the GI50 [5] was > 100 µM (inactive) and the GI50 [6] was > 100 µM (inactive). For the same compound, the GI50 [7] was > 100 µM (inactive), the GI50 [8] was > 100 µM (inactive) and the GI50 [9] was > 100 µM (inactive). For the same compound, the GI50 [10] was greater than 100 µM, the GI50 [11] was > 100 µM (inactive) and the GI50 [12] was > 100 µM (inactive). For the same compound, the GI50 [13] was > 100 µM (inactive), the GI50 [14] was > 100 µM (inactive) and the GI50 [15] was > 100 µM (inactive). The GI50 [16] was > 100 µM (inactive), the GI50 [17] was > 100 µM (inactive) and the GI50 [18] was > 100 µM (inactive). The GI50 [19] was > 100 µM (inactive) and the GI50 [20] was > 100 µM (inactive).
In the case of `CC(=O)c1ccccc1NP(=O)(c1ccccc1)c1ccccc1`, the GI50 [1] is reported as 13.2 µM (inactive), the GI50 [2] is reported as 14.1 µM (inactive) and the GI50 [3] is reported as 20.4 µM (inactive). The GI50 [4] was 45.4 µM (inactive), the GI50 [5] was 53.2 µM (inactive) and the GI50 [6] was 62.5 µM (inactive). For the same compound, the GI50 [7] was 90.6 µM (inactive), the GI50 [8] was 34 µM (inactive) and the GI50 [9] was 60 µM (inactive). The GI50 [10] was 66.4 µM, the GI50 [11] was 32.5 µM (inactive) and the GI50 [12] was > 100 µM (inactive). For the same compound, the GI50 [13] was 67.9 µM (inactive), the GI50 [14] was 33.9 µM (inactive) and the GI50 [15] was 68.9 µM (inactive). For the same compound, the GI50 [16] was > 100 µM (inactive), the GI50 [17] was 43.2 µM (inactive) and the GI50 [18] was 46.5 µM (inactive). The GI50 [19] was 33.5 µM (inactive) and the GI50 [20] was > 100 µM (inactive).
For `COc1ccc2nc3c4c(nccc4c2c1)-c1ncccc1C3=O`, the GI50 [1] was 0.604 µM (active), the GI50 [2] was 0.201 µM (active) and the GI50 [3] was 0.0586 µM (active). The GI50 [4] was 0.132 µM (active), the GI50 [5] was 0.0124 µM (active) and the GI50 [6] was 0.016 µM (active). For the same compound, the GI50 [7] was 0.00982 µM (active), the GI50 [8] was 0.0791 µM (active) and the GI50 [9] was 0.00542 µM (active). For the same compound, the GI50 [10] was 0.005 µM, the GI50 [11] was 0.494 µM (active) and the GI50 [12] was 0.034 µM (active). The GI50 [13] was 0.109 µM (active), the GI50 [14] was 0.0118 µM (active) and the GI50 [15] was 0.0834 µM (active). For the same compound, the GI50 [16] was 0.0116 µM (active), the GI50 [17] was 0.119 µM (active) and the GI50 [18] was 0.0294 µM (active). The GI50 [19] was 0.818 µM (active) and the GI50 [20] was 0.0317 µM (active).
For `COc1cccc(-c2cc(O)c3cc(N4CCN(C)CC4)ccc3n2)c1`, the GI50 [1] was 1.67 µM (inactive), the GI50 [2] was 1.47 µM (inactive) and the GI50 [3] was 2.82 µM (inactive). For the same compound, the GI50 [4] was 3.37 µM (inactive), the GI50 [5] was 0.543 µM (active) and the GI50 [6] was 0.628 µM (active). The GI50 [7] was 1.73 µM (inactive), the GI50 [8] was 0.641 µM (active) and the GI50 [9] was 0.42 µM (active). The GI50 [10] was 1.75 µM, the GI50 [11] was 3.34 µM (inactive) and the GI50 [12] was 2.01 µM (inactive). For the same compound, the GI50 [13] was 1.47 µM (inactive), the GI50 [14] was 1.99 µM (inactive) and the GI50 [15] was 0.706 µM (active). The GI50 [16] was 5.25 µM (inactive), the GI50 [17] was 1.18 µM (inactive) and the GI50 [18] was 3.2 µM (inactive). For the same compound, the GI50 [19] was 0.986 µM (active) and the GI50 [20] was 2.44 µM (inactive).
In the case of `COc1ccc(/C=N/NS(=O)(=O)c2ccc(/C=C3\NC(=O)N(C)C3=O)cc2)cc1`, the GI50 [1] is reported as > 100 µM (inactive), the GI50 [2] is reported as > 100 µM (inactive) and the GI50 [3] is reported as > 100 µM (inactive). For the same compound, the GI50 [4] was 89.9 µM (inactive), the GI50 [5] was > 100 µM (inactive) and the GI50 [6] was > 100 µM (inactive). For the same compound, the GI50 [7] was > 100 µM (inactive), the GI50 [8] was > 100 µM (inactive) and the GI50 [9] was > 100 µM (inactive). For the same compound, the GI50 [10] was greater than 100 µM, the GI50 [11] was 38.8 µM (inactive) and the GI50 [12] was 56.2 µM (inactive). The GI50 [13] was > 100 µM (inactive), the GI50 [14] was > 100 µM (inactive) and the GI50 [15] was 57.8 µM (inactive). For the same compound, the GI50 [16] was > 100 µM (inactive), the GI50 [17] was 38.6 µM (inactive) and the GI50 [18] was 43.6 µM (inactive). For the same compound, the GI50 [19] was 78.3 µM (inactive) and the GI50 [20] was 80.2 µM (inactive).
With `CN(C)c1ccc(/C=C/C(=O)CC(=O)/C=C/c2ccc(N(C)C)cc2)cc1` the GI50 [1] was > 100 µM (inactive), the GI50 [2] was > 100 µM (inactive) and the GI50 [3] was > 100 µM (inactive). The GI50 [4] was > 100 µM (inactive), the GI50 [5] was 57.3 µM (inactive) and the GI50 [6] was > 100 µM (inactive). For the same compound, the GI50 [7] was 15.7 µM (inactive), the GI50 [8] was > 100 µM (inactive) and the GI50 [9] was 36.2 µM (inactive). For the same compound, the GI50 [10] was greater than 100 µM, the GI50 [11] was 85.1 µM (inactive) and the GI50 [12] was > 100 µM (inactive). The GI50 [13] was > 100 µM (inactive), the GI50 [14] was > 100 µM (inactive) and the GI50 [16] was > 100 µM (inactive). For the same compound, the GI50 [17] was > 100 µM (inactive), the GI50 [18] was > 100 µM (inactive) and the GI50 [19] was > 100 µM (inactive). For the same compound, the GI50 [20] was > 100 µM (inactive).
For `CCOC(=O)c1cc(C2CCN(Cc3ccccc3)C2=O)c(C(=O)C(=[N+]=[N-])C(C)=O)[nH]1` (stereo not drawn), the GI50 [1] was > 100 µM (inactive), the GI50 [2] was > 100 µM (inactive) and the GI50 [3] was > 100 µM (inactive). For the same compound, the GI50 [4] was > 100 µM (inactive), the GI50 [5] was > 100 µM (inactive) and the GI50 [6] was > 100 µM (inactive). For the same compound, the GI50 [7] was > 100 µM (inactive), the GI50 [8] was > 100 µM (inactive) and the GI50 [9] was > 100 µM (inactive). For the same compound, the GI50 [10] was greater than 100 µM, the GI50 [11] was > 100 µM (inactive) and the GI50 [12] was > 100 µM (inactive). For the same compound, the GI50 [13] was > 100 µM (inactive), the GI50 [14] was > 100 µM (inactive) and the GI50 [15] was > 100 µM (inactive). For the same compound, the GI50 [17] was > 100 µM (inactive), the GI50 [18] was > 100 µM (inactive) and the GI50 [19] was > 100 µM (inactive). The GI50 [20] was > 100 µM (inactive).
